One may read the Ki as the equilibrium dissociation constant of an inhibitor or competing ligand from its target. For orientation: IC50 means the point on the concentration scale where inhibition reaches its midpoint.

Data on 35 compounds can be found in ChEMBL document CHEMBL5584309, “Discovery of Novel Mcl-1 Inhibitors with a 3-Substituted-1H-indole-1-yl Moiety Binding to the P1-P3 Pockets to Induce Apoptosis in Acute Myeloid Leukemia Cells” (J Med Chem, 2024).

Bounds are passed on as bounds.

Experiment [1] has as its target Induced myeloid leukemia cell differentiation protein Mcl-1 (Homo sapiens, UniProt Q07820). Nature of the experiment: Binding affinity to Mcl-1 (unknown origin) pre-incubated for 30 mins followed by addition FAM-peptide further incubated for 20 mins by fluorescence polarization-based binding assay. (In general: In fluorescence polarisation assays a small probe gives low polarisation when free and higher when bound to something large.)

For experiment [2], the system named is HL-60. Nature of the experiment: Antiproliferative activity against human HL-60 cells assessed as growth inhibition measured after 72 hrs by CCK-8 assay. The class given is functional, cell-based. The note with it: HL-60, 72 h. On the technique in general: Formazan colour is commonly taken as a measure of viable cells.

Induced myeloid leukemia cell differentiation protein Mcl-1, sequence (Q07820 whole entry): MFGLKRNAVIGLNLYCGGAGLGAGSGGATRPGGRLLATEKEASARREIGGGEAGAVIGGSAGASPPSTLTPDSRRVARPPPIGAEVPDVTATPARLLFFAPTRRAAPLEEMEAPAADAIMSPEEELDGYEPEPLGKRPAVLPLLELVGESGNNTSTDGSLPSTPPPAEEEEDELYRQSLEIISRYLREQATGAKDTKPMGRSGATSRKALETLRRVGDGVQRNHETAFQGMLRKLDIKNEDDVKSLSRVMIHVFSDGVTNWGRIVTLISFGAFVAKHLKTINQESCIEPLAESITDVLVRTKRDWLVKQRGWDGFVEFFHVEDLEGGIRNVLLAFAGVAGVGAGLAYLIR

`Cc1ccc2c(ccn2Cc2ccccc2-c2cccc3c(CCCOc4cc(C)c(Cl)c(C)c4)c(C(=O)O)n(CCN4CCOCC4)c23)c1`: the Ki in experiment [1] (read-out: Ki) worked out at 160 nM. Also, in experiment [2], the IC50 was found to be 39100 nM.
As for `Cc1cc(OCCCc2c(C(=O)O)n(CCN3CCOCC3)c3c(-c4ccccc4Cn4cc(CCNC(=O)CC(F)(F)F)c5ccccc54)cccc23)cc(C)c1Cl`, the Ki in experiment [1] (read-out: Ki) worked out at 60 nM. Besides, the IC50 in experiment [2] came out at 18300 nM.
As to `Cc1ccccc1C(=O)NCCc1cn(Cc2ccccc2-c2cccc3c(CCCOc4cc(C)c(Cl)c(C)c4)c(C(=O)O)n(CCN4CCOCC4)c23)c2ccccc12`, the Ki in experiment [1] (read-out: Ki) came out at 59 nM. In experiment [2], the IC50 came to 10100 nM.
Regarding `COc1ccc(CN(C)C(=O)c2nn(C)c(COc3ccc(OC)cc3)c2-c2cccc3c(CCCOc4cc(C)c(Cl)c(C)c4)c(C(=O)O)[nH]c23)cc1`, the Ki in experiment [1] (read-out: Ki) is 530 nM. The IC50 in experiment [2] turned out to be 28000 nM.
Turning to `Cc1cc(OCCCc2c(C(=O)O)[nH]c3c(-c4c(C(=O)NCC5CC5)nn(C)c4Cn4cc(C)c5ccccc54)cccc23)cc(C)c1Cl`, the inhibition constant (Ki) in experiment [1] (read-out: Ki) is 100 nM. Also, the IC50 in experiment [2] stood at 10500 nM.
The like results for `Cc1cc(OCCCc2c(C(=O)O)n(CCN3CCOCC3)c3c(-c4ccccc4Cn4cc(CCNC(=O)c5c(C)cccc5F)c5ccccc54)cccc23)cc(C)c1Cl` were, in that order, 43 nM and 14200 nM.
For `Cc1cc(OCCCc2c(C(=O)O)n(CCN3CCOCC3)c3c(-c4ccccc4Cn4ccc5ccccc54)cccc23)cc(C)c1Cl`, in that order: 150 nM and 21200 nM.
The like results for `Cc1ccc2c(ccn2Cc2c(-c3cccc4c(CCCOc5cc(C)c(Cl)c(C)c5)c(C(=O)O)[nH]c34)c(C(=O)NCC3CC3)nn2C)c1` were, in that order, 150 nM and 8820 nM.
As to `Cc1cc(OCCCc2c(C(=O)O)[nH]c3c(-c4c(C(=O)NCC5CC5)nn(C)c4COc4ccc(OC(F)(F)F)cc4)cccc23)cc(C)c1Cl`, in experiment [1] (read-out: Ki), the Ki worked out at 260 nM. In addition, the IC50 in experiment [2] was 32200 nM.
For `Cc1cc(OCCCc2c(C(=O)O)n(CCN3CCOCC3)c3c(-c4ccccc4Cn4cc(CCNC(=O)/C=C/c5ccc(Cl)c(Cl)c5)c5ccccc54)cccc23)cc(C)c1Cl`, the Ki entry in experiment [1] is reported as “Not Active”. In experiment [2], the IC50 is above 50000 nM.
`Cc1cc(OCCCc2c(C(=O)O)n(CCN3CCOCC3)c3c(-c4ccccc4Cn4ccc5c(C)cccc54)cccc23)cc(C)c1Cl`: in experiment [1] (read-out: Ki), the Ki stood at 120 nM. Also, in experiment [2], the IC50 stood at 15100 nM.
For `COc1cccc(OCc2c(-c3cccc4c(CCCOc5cc(C)c(Cl)c(C)c5)c(C(=O)O)[nH]c34)c(C(=O)NCC3CC3)nn2C)c1`, in that order: 370 nM and above 50000 nM.
Regarding `Cc1cc(OCCCc2c(C(=O)O)[nH]c3c(-c4c(C(=O)NCC5CC5)nn(C)c4Cn4cc(CCNC(=O)OC(C)(C)C)c5ccccc54)cccc23)cc(C)c1Cl`, the Ki in experiment [1] (read-out: Ki) was 150 nM. Moreover, the IC50 in experiment [2] turned out to be 19300 nM.
With `Cc1cc(OCCCc2c(C(=O)O)n(CCN3CCOCC3)c3c(-c4ccccc4Cn4cc(CCNC(=O)c5ccncc5F)c5ccccc54)cccc23)cc(C)c1Cl`, the inhibition constant Ki in experiment [1] (read-out: Ki) was determined as 55 nM. Further, the IC50 in experiment [2] was found to be 12600 nM.
`Cc1cc(OCCCc2c(C(=O)O)[nH]c3ccccc23)cc(C)c1Cl`: the IC50 in experiment [2] was above 50000 nM.
Turning to `Cc1cc(OCCCc2c(C(=O)O)[nH]c3c(-c4ccccc4Cn4ccc5ccccc54)cccc23)cc(C)c1Cl`, the Ki in experiment [1] (read-out: Ki) is 240 nM. Besides, the IC50 in experiment [2] was found to be 44100 nM.
For the compound `Cc1cc(OCCCc2c(C(=O)O)n(CCN3CCOCC3)c3c(-c4ccccc4Cn4cc(CCNC(=O)c5ccc(Br)cc5)c5ccccc54)cccc23)cc(C)c1Cl`, in experiment [1] (read-out: Ki), the Ki was 51 nM. For the same compound, the IC50 in experiment [2] turned out to be 30700 nM.
For the compound `Cc1cc(OCCCc2c(C(=O)O)n(CCN3CCOCC3)c3c(-c4ccccc4Cn4cc(CCNCC(N)=O)c5ccccc54)cccc23)cc(C)c1Cl`, the Ki in experiment [1] (read-out: Ki) stood at 1200 nM. In experiment [2], the IC50 is above 50000 nM.
The like results for `Cc1cc(OCCCc2c(C(=O)O)n(CCN3CCOCC3)c3c(-c4ccccc4Cn4cc(CCNC(=O)c5ccncn5)c5ccccc54)cccc23)cc(C)c1Cl` were, in that order, 120 nM and 28400 nM.
The like results for `COc1ccc(OCc2c(-c3cccc4c(CCCOc5cc(C)c(Cl)c(C)c5)c(C(=O)O)[nH]c34)c(C(=O)N(C)CCNC(=O)OC(C)(C)C)nn2C)cc1` were, in that order, 260 nM and above 50000 nM.
With `COc1ccc(OCc2c(-c3cccc4c(CCCOc5cc(C)c(Cl)c(C)c5)c(C(=O)O)[nH]c34)c(C(=O)NC3CCOCC3)nn2C)cc1`, the Ki in experiment [1] (read-out: Ki) was determined as 840 nM. Moreover, the half-maximal inhibitory concentration (IC50) in experiment [2] was found to be 21100 nM.
The like results for `Cc1cc(OCCCc2c(C(=O)O)n(CCN3CCOCC3)c3c(-c4ccccc4Cn4cc(CCNC(=O)CCC(F)(F)F)c5ccccc54)cccc23)cc(C)c1Cl` were, in that order, 98 nM and 12800 nM.
As for `Cc1cc(OCCCc2c(C(=O)O)n(CCN3CCOCC3)c3c(-c4ccccc4Cn4cc(CCNC(=O)c5ccc(C=O)cc5)c5ccccc54)cccc23)cc(C)c1Cl`, in experiment [1] (read-out: Ki), the Ki was 27 nM. In addition, in experiment [2], the IC50 amounted to 35100 nM.
Take `Cc1cc(OCCCc2c(C(=O)O)[nH]c3c(-c4c(C(=O)NCC5CC5)nn(C)c4COc4ccccc4)cccc23)cc(C)c1Cl`: in experiment [1] (read-out: Ki), the Ki is 340 nM. For the same compound, the IC50 in experiment [2] turned out to be 47800 nM.
The like results for `COc1ccc(OCc2c(-c3cccc4c(CCCOc5cc(C)c(Cl)c(C)c5)c(C(=O)O)[nH]c34)c(C(=O)Nc3ccccc3F)nn2C)cc1` were, in that order, 390 nM and 28300 nM.
For `Cc1cc(OCCCc2c(C(=O)O)n(CCN3CCOCC3)c3c(-c4ccccc4Cn4cc(CCNC(=O)c5ccccc5C(F)(F)F)c5ccccc54)cccc23)cc(C)c1Cl`, in that order: 56 nM and 14300 nM.
Turning to `Cc1cc(OCCCc2c(C(=O)O)[nH]c3c(-c4c(C(=O)NCC5CC5)nn(C)c4COc4ccc(C=O)cc4)cccc23)cc(C)c1Cl`, in experiment [1] (read-out: Ki), the inhibition constant Ki is 180 nM. In addition, the IC50 in experiment [2] came out at 34900 nM.
The like results for `C=CC(=O)NCCc1cn(Cc2ccccc2-c2cccc3c(CCCOc4cc(C)c(Cl)c(C)c4)c(C(=O)O)n(CCN4CCOCC4)c23)c2ccccc12` were, in that order, 190 nM and 31600 nM.
For `Cc1cc(OCCCc2c(C(=O)O)n(CCN3CCOCC3)c3c(-c4ccccc4Cn4cc(CCNC(=O)c5ccccc5Br)c5ccccc54)cccc23)cc(C)c1Cl`, in that order: 68 nM and 16800 nM.
The like results for `Cc1cc(OCCCc2c(C(=O)O)n(CCN3CCOCC3)c3c(-c4ccccc4Cn4cc(CCNC(=O)c5ccoc5)c5ccccc54)cccc23)cc(C)c1Cl` were, in that order, 58 nM and 29900 nM.
As to `COc1cccc2c1ccn2Cc1ccccc1-c1cccc2c(CCCOc3cc(C)c(Cl)c(C)c3)c(C(=O)O)n(CCN3CCOCC3)c12`, in experiment [1] (read-out: Ki), the Ki amounted to 95 nM. The IC50 in experiment [2] turned out to be 14100 nM.
`COc1ccc(OCc2c(-c3cccc4c(CCCOc5cc(C)c(Cl)c(C)c5)c(C(=O)O)[nH]c34)c(C(=O)NCC3CCOCC3)nn2C)cc1`: in experiment [1] (read-out: Ki), the Ki was 490 nM. Further, in experiment [2], the IC50 came to 35000 nM.
In the case of `Cc1cc(OCCCc2c(C(=O)O)n(CCN3CCOCC3)c3c(-c4ccccc4Cn4cc(C)c5ccccc54)cccc23)cc(C)c1Cl`, the Ki in experiment [1] (read-out: Ki) was determined as 89 nM. For the same compound, the IC50 in experiment [2] is 15600 nM.
For `Cc1cc(OCCCc2c(C(=O)O)n(CCN3CCOCC3)c3c(-c4ccccc4Cn4cc(CCNS(=O)(=O)c5ccc(F)cc5)c5ccccc54)cccc23)cc(C)c1Cl`, in that order: 48 nM and 8910 nM.
For `Cc1cc(OCCCc2c(C(=O)O)n(CCN3CCOCC3)c3c(-c4ccccc4Cn4cc(CCNC(=O)c5cccc(Br)c5)c5ccccc54)cccc23)cc(C)c1Cl`, the Ki in experiment [1] (read-out: Ki) worked out at 87 nM. In addition, the IC50 in experiment [2] came out at 12300 nM.
